Entries after “also recorded” stand apart in the source; their conditions may differ.
Experiments:
p44/42 MAPK = assay: p44/42 MAPK:Phos p44/42 MAPK ratio by immunocytochemistry, high-content imaging in C2C12; type: cell-based, mouse; details: serum starved C2C12, 30 minutes; 400 nM, 0.04 nM
Experimental: (§1) Stimulation of AKT pathways and MAPK pathways in ellagic acid dihydrate, metformin, and insulin treated cell cultures was performed. Insulin stimulates glucose uptake into cells by increasing GLUT4 activation, and AKT, specifically phos-AKT, signaling alters GLUT4 translocation. […] Cellular assays were performed using mouse myoblast C2C12 cells. Relative protein levels of AKT:phos AKT and p44/42 MAPK:phos p44/42 MAPK were determined.
Serum starved cells (1 hr) were treated for 30 minutes with each of the tested compounds. Ratios of phosphorylated to non-phosphorylated proteins were determined using immunocytochemistry labeling (anti-AKT, anti-Phos AKT; or anti-p44/42 MAPK, anti-Phos p44/42 MAPK) on a high-content imaging system (Operetta, Perkin Elmer) using the fluorescent signal of anti-rabbit Alexa 647. Increased phosphorylation is indicated as decrease in signal of AKT:Phos AKT ratio (log 2 scale) and p44/42 MAPK:Phos p44/42 MAPK ratio (log 2 scale) relative to vehicle treated cells.

MEF cells = assay: Glucose uptake, 2-NBDG labeling, flow cytometry, MEFs; type: cell-based, mouse
Experimental: Cellular assays were performed using mouse myoblast C2C12 cells and MEF cells. […] Increased glucose uptake was indicated as increasing signal of 2-NBDG ([…]) in cells. Glucose uptake assays were carried out in a final incubation volume of 50 μl consisting of, 2-NBDG), (100 μM) in 1× Phosphate Buffered Saline w/Ca+, Mg+ (PBS++). The same buffer was used for washing cells. Insulin was used as a positive control. All testing compounds were prepared in 10% DMSO and diluted 1:100 for a final concentration of 0.1% DMSO (vehicle). Cells were culture to 70-90% confluence and then washed twice with PBS++. Cells were incubated for 30 minutes at 37° C. in PBS++. Nuclear stain, HCS CellMask stain (blue, Invitrogen), and/or testing compounds (ellagic acid dihydrate, insulin, or vehicle) were added. Cells were incubated for 30 min at 37° C. Cells were washed twice with PBS++ and incubated with 2-NBDG for 10 minutes. Cells were washed thrice with PBS++ and then imaged in PBS++. Alternatively, the final PBS wash was removed and cells were incubated with Accutase (Invitrogen) for 10 min at 37° C., neutralized with 10% FBS in 1×PBS, and analyzed by flow cytometry. An additional experiment was performed to measure glucose uptake in C2Cl2 cells exposed to metformin, insulin and ellagic acid dihydrate 2 (batch 2). FIG. 5C. Glucose uptake in ellagic acid dihydrate treated cell culture was measured and compared to glucose uptake under insulin or ellagic acid treatment. […] Flow cytometry results were run in triplicate with 1000 cells per batch.

[1] = Weight loss and blood glucose in female SWV mice with STZ induced diabetes, 30 days gavage; type: in vivo, mouse; details: STZ diabetic mice; predicted from in vitro data of Example 5
Experimental: Weight loss and blood glucose in diabetes induced mice treated with ellagic acid was determined and weight loss and blood glucose in mice treated with ellagic acid dihydrate may be determined by the following procedures. Induction of Diabetes: Diabetes is induced in mice by intraperitoneal injection with Streptozotocin (STZ 40 mg/kg) daily for five days. The mice are considered hyperglycemic when the glucose level of each dam is above 200 mg/dL. The mice are fasted for 4 hours before STZ injection and glucose measurement. Treatment: The mice are treated daily for thirty days with ellagic acid or control in the form of a supplemental pill homogenized and suspended in 25% water solution of Cremophor EL. The mice are treated for one month via gavage using the human equivalent dose of 122.4 mg pill/kg of subject (40.6 mg ellagic acid/kg of the subject), the human equivalent does of 40.6 mg ellagic acid/kg of the subject using 98% pure ellagic acid, or control vehicle (25% water solution of Cremophor EL). The human equivalent dose is calculated as described in Example 8. Treatments would start two weeks after the last STZ injection in which hyperglycemia is confirmed in the diabetic mice. The mice would be weighed daily and glucose levels would be measured in fasted animals every five days.

AKT = assay: AKT:Phos AKT ratio by immunocytochemistry, high-content imaging in C2C12; type: cell-based, mouse; details: serum starved C2C12, 30 minutes; 4 nM-4 μM for insulin and ellagic acid dihydrate
Experimental: as §1, with “[…] Serum starved cells (1 hr) were treated for 30 minutes with each” for “Relative protein levels”, “the tested compounds.” for “AKT:phos AKT and p44/42 MAPK:phos p44/42 MAPK were determined.”

[2] = tested on: mouse myoblast C2C12 cells; assay: Glucose uptake, 2-NBDG labeling, flow cytometry, C2C12; type: cell-based
Experimental: Cellular assays were performed using mouse myoblast C2C12 cells and MEF cells. […] Increased glucose uptake was indicated as increasing signal of 2-NBDG ([…]) in cells. Glucose uptake assays were carried out in a final incubation volume of 50 μl consisting of, 2-NBDG), (100 μM) in 1× Phosphate Buffered Saline w/Ca+, Mg+ (PBS++). The same buffer was used for washing cells. Insulin was used as a positive control. All testing compounds were prepared in 10% DMSO and diluted 1:100 for a final concentration of 0.1% DMSO (vehicle). Cells were culture to 70-90% confluence and then washed twice with PBS++. Cells were incubated for 30 minutes at 37° C. in PBS++. Nuclear stain, HCS CellMask stain (blue, Invitrogen), and/or testing compounds (ellagic acid dihydrate, insulin, or vehicle) were added. Cells were incubated for 30 min at 37° C. Cells were washed twice with PBS++ and incubated with 2-NBDG for 10 minutes. Cells were washed thrice with PBS++ and then imaged in PBS++. Alternatively, the final PBS wash was removed and cells were incubated with Accutase (Invitrogen) for 10 min at 37° C., neutralized with 10% FBS in 1×PBS, and analyzed by flow cytometry. An additional experiment was performed to measure glucose uptake in C2Cl2 cells exposed to metformin, insulin and ellagic acid dihydrate 2 (batch 2). FIG. 5C.

With `O.O.O=c1oc2c(O)c(O)cc3c(=O)oc4c(O)c(O)cc1c4c23` [ellagic acid dihydrate] the “p44/42 MAPK:Phos p44/42 MAPK ratio relative to vehicle” value (p44/42 MAPK) was “increase in p44/42 MAPK”, the “increased glucose uptake (percent change relative to vehicle)” value (MEF cells; 400 nM exposure, fibroblasts (MEFs), flow cytometry) was 47% and the “dose effect for increasing glucose uptake” value (MEF cells; MEFs, flow cytometry, 2-NBDG) was “dose effect for increasing glucose uptake”. For the same molecule, the “increase in glucose uptake compared with ellagic acid or insulin” value (MEF cells; MEFs, flow cytometry, Example 5) was “significantly greater increase in glucose uptake than that seen in ellagic acid (EA) or insulin treatment”, the “glucose uptake (2-NBDG signal) relative to vehicle” value (MEF cells; MEFs, flow cytometry, vehicle 0.1% DMSO) was “significantly greater than vehicle treated” and the “glucose uptake relative to insulin” value (MEF cells; fibroblasts (MEFs), at most concentrations tested / equal concentrations, dihydrate) was “significantly more glucose uptake relative to insulin; also recorded: exceeded the uptake induced by insulin”. The “mean glucose level values compared to mice treated with ellagic acid” value [1] was “lower mean glucose level values”, the “weight loss compared to mice treated with ellagic acid” value [1] was “greater decrease in weight loss” and the “AKT:Phos AKT ratio (log 2 scale) relative to vehicle treated cells” value (AKT) was “increase in AKT relative to Phos-AKT signal”. For the same molecule, the “increase in glucose uptake compared with metformin” value ([2]; C2C12, at 4000 nm, FIG. 5C (ellagic acid dihydrate batch 2)) was “greater increase in glucose uptake than metformin”, the “dose effect for increasing glucose uptake” value ([2]; C2C12, flow cytometry, 2-NBDG) was “dose effect for increasing glucose uptake” and the “glucose uptake (2-NBDG signal) relative to vehicle” value ([2]; C2C12, flow cytometry, vehicle 0.1% DMSO) was “significantly greater than vehicle treated”. The “increase in glucose uptake in myoblasts relative to fibroblasts” value ([2]; C2C12 myoblasts versus MEF fibroblasts) was ~4 × and the “glucose uptake relative to insulin” value ([2]; myoblasts (C2C12), at most concentrations tested / equal concentrations, dihydrate) was “significantly more glucose uptake relative to insulin; also recorded: exceeded the uptake induced by insulin”.
